pIC50: −log10 of the molar value.
target: CDK2/Cyclin E1 (Homo sapiens (Human), UniProt P24941); assay: CDK2/Cyclin E1 HTRF enzyme activity assay; format: biochemical; settings: 1 mM ATP; CDK2/Cyclin E1 0.25 nM; 60 minutes at room temperature
Protocol: Example A. CDK2/Cyclin E1 HTRF Enzyme Activity Assay
CDK2/Cyclin E1 enzyme activity assays utilize full-length human CDK2 co-expressed as N-terminal GST-tagged protein with FLAG-Cyclin E1 in a baculovirus expression system (Carna Product Number 04-165). Assays were conducted in white 384-well polystyrene plates in a final reaction volume of 8 μL. CDK2/Cyclin E1 (0.25 nM) was incubated with the compounds of the Examples (40 nL serially diluted in DMSO) in the presence of ATP (50 μM or 1 mM) and 50 nM ULight™-labeled eIF4E-binding protein 1 (THR37/46) peptide (PerkinElmer) in assay buffer (containing 50 mM HEPES pH 7.5, 1 mM EGTA, 10 mM MgCl2, 2 mM DTT, 0.05 mg/mL BSA, and 0.01% Tween 20) for 60 minutes at room temperature. The reactions were stopped by the addition of EDTA and Europium-labeled anti-phospho-4E-BP1 antibody (PerkinElmer), for a final concentration of 15 mM and 1.5 nM, respectively. HTRF signals were read after 1 hour at room temperature on a PHERAstar FS plate reader (BMG Labtech). Data was analyzed with IDBS XLFit and GraphPad Prism 5.0 software using a three or four parameter dose response curve to determine IC50 for each compound.

pIC50, ≥ 7.70:
CS(=O)(=O)N1CCC(Nc2nc3ccc(-c4cn[nH]c4)c(OCC4CC4)n3n2)CC1 [Example 82, 5-(Cyclopropylmethoxy)-N-(1-(methylsulfonyl)piperidin-4-yl)-6-(1H-pyrazol-4-yl)-[1,2,4]triazolo[1,5-a]pyridin-2-amine]
COCCOc1c(-c2cn[nH]c2)ccn2nc(NC3CCN(S(C)(=O)=O)CC3)nc12 [Example 6, 8-(2-methoxyethoxy)-N-(1-(methylsulfonyl)piperidin-4-yl)-7-(1H-pyrazol-4-yl)-[1,2,4]triazolo[1,5-a]pyridin-2-amine]
C[C@@H]1CN(S(C)(=O)=O)CC[C@@H]1Nc1nc2ccc(-c3cn[nH]c3)c(OC3CCC3)n2n1 [Example 69, 5-Cyclobutoxy-N-((3R,4S)-3-methyl-1-(methylsulfonyl)piperidin-4-yl)-6-(1H-pyrazol-4-yl)-[1,2,4]triazolo[1,5-a]pyridin-2-amine]
C[C@@H]1CN(S(=O)(=O)c2cnn(C)c2)CC[C@@H]1Nc1nc2cnc(-c3cn[nH]c3)c(OC3CCC3)n2n1 [Example 94, 5-Cyclobutoxy-N-((3R,4S)-3-methyl-1-((1-methyl-1H-pyrazol-4-yl)sulfonyl)piperidin-4-yl)-6-(1H-pyrazol-4-yl)-[1,2,4]triazolo[1,5-a]pyrazin-2-amine]
CS(=O)(=O)N1CCC(Nc2nc3cnc(-c4cn[nH]c4)c(OC4CCOC(C(F)(F)F)C4)n3n2)CC1 (stereo not drawn) [Example 119, N-(1-(Methylsulfonyl)piperidin-4-yl)-6-(1H-pyrazol-4-yl)-5-((2-(trifluoromethyl)tetrahydro-2H-pyran-4-yl)oxy)-[1,2,4]triazolo[1,5-a]pyrazin-2-amine]
CC(C)Oc1c(-c2cn[nH]c2)ncc2nc(N[C@H]3CCN(S(C)(=O)=O)C[C@H]3C)nn12 [Example 87, 5-Isopropoxy-N-((3R,4S)-3-methyl-1-(methylsulfonyl)piperidin-4-yl)-6-(1H-pyrazol-4-yl)-[1,2,4]triazolo[1,5-a]pyrazin-2-amine]
CC(C)Oc1c(-c2cn[nH]c2)ncn2nc(N[C@H]3CCN(S(=O)(=O)C4CC4)C[C@H]3C)nc12 [Example 53, N-((3R,4S)-1-(Cyclopropylsulfonyl)-3-methylpiperidin-4-yl)-8-isopropoxy-7-(1H-pyrazol-4-yl)-[1,2,4]triazolo[1,5-c]pyrimidin-2-amine]
CS(=O)(=O)N1CCC(Nc2nc3c(OCC(F)(F)F)c(-c4cn[nH]c4)ccn3n2)CC1 [Example 10, N-(1-(methylsulfonyl)piperidin-4-yl)-7-(1H-pyrazol-4-yl)-8-(2,2,2-trifluoroethoxy)-[1,2,4]triazolo[1,5-a]pyridin-2-amine]
CC1CN(S(C)(=O)=O)CCC1Nc1nc2c(N3CCCCC3)c(-c3cn[nH]c3)ncn2n1 (stereo not drawn) [Example 50, N-(3-Methyl-1-(methylsulfonyl)piperidin-4-yl)-8-(piperidin-1-yl)-7-(1H-pyrazol-4-yl)-[1,2,4]triazolo[1,5-c]pyrimidin-2-amine]
CCN(C)CCCS(=O)(=O)N1CC[C@H](Nc2nc3c(OC(C)C)c(-c4cn[nH]c4)ncn3n2)[C@H](C)C1 [Example 55, N-((3R,4S)-1-((3-(Ethyl(methyl)amino)propyl)sulfonyl)-3-methylpiperidin-4-yl)-8-isopropoxy-7-(1H-pyrazol-4-yl)-[1,2,4]triazolo[1,5-c]pyrimidin-2-amine]
CCCOc1c(-c2cn[nH]c2)ccc2nc(N[C@H]3CCN(S(C)(=O)=O)C[C@H]3C)nn12 [Example 71, N-((3R,4S)-3-Methyl-1-(methylsulfonyl)piperidin-4-yl)-5-propoxy-6-(1H-pyrazol-4-yl)-[1,2,4]triazolo[1,5-a]pyridin-2-amine]
CC(C)COc1c(-c2ccnc3[nH]ccc23)ccn2nc(NC3CCN(S(C)(=O)=O)CC3)nc12 [Example 15, 8-isobutoxy-N-(1-(methylsulfonyl)piperidin-4-yl)-7-(1H-pyrrolo[2,3-b]pyridin-4-yl)-[1,2,4]triazolo[1,5-a]pyridin-2-amine]
CCCCOc1c(-c2cn[nH]c2)ncc2nc(NC3CCN(S(C)(=O)=O)CC3)nn12 [Example 106, 5-Butoxy-N-(1-(methylsulfonyl)piperidin-4-yl)-6-(1H-pyrazol-4-yl)-[1,2,4]triazolo[1,5-a]pyrazin-2-amine]
CS(=O)(=O)N1CCC(Nc2nc3c(OC4CCOCC4)c(-c4cn[nH]c4)ccn3n2)CC1 [Example 5, N-(1-(methylsulfonyl)piperidin-4-yl)-7-(1H-pyrazol-4-yl)-8-((tetrahydro-2H-pyran-4-yl)oxy)-[1,2,4]triazolo[1,5-a]pyridin-2-amine]
CC(C)Sc1c(-c2cn[nH]c2)ncc2nc(NC3CCN(S(C)(=O)=O)CC3)nn12 [Example 124, 5-(Isopropylthio)-N-(1-(methylsulfonyl)piperidin-4-yl)-6-(1H-pyrazol-4-yl)-[1,2,4]triazolo[1,5-a]pyrazin-2-amine]
CCS(=O)(=O)N1CC[C@H](Nc2nc3cnc(-c4cn[nH]c4)c(OC4CCC4)n3n2)[C@H](C)C1 [Example 93, 5-Cyclobutoxy-N-((3R,4S)-1-(ethylsulfonyl)-3-methylpiperidin-4-yl)-6-(1H-pyrazol-4-yl)-[1,2,4]triazolo[1,5-a]pyrazin-2-amine]
C[C@@H]1CN(S(C)(=O)=O)CC[C@@H]1Nc1nc2cnc(-c3cn[nH]c3)c(OC3CC(C(F)F)C3)n2n1 (stereo partly drawn) [Example 108, 5-(3-(Difluoromethyl)cyclobutoxy)-N-((3R,4S)-3-methyl-1-(methylsulfonyl)piperidin-4-yl)-6-(1H-pyrazol-4-yl)-[1,2,4]triazolo[1,5-a]pyrazin-2-amine]
C[C@@H]1CN(S(=O)(=O)C2CC2)CC[C@@H]1Nc1nc2cnc(-c3cn[nH]c3)c(OC3CCOCC3)n2n1 [Example 92, N-((3R,4S)-1-(Cyclopropylsulfonyl)-3-methylpiperidin-4-yl)-6-(1H-pyrazol-4-yl)-5-((tetrahydro-2H-pyran-4-yl)oxy)-[1,2,4]triazolo[1,5-a]pyrazin-2-amine]
C[C@@H]1CN(S(C)(=O)=O)CC[C@@H]1Nc1nc2ccc(-c3cn[nH]c3)c(OCC(F)(F)C(F)F)n2n1 [Example 73, N-((3R,4S)-3-Methyl-1-(methylsulfonyl)piperidin-4-yl)-6-(1H-pyrazol-4-yl)-5-(2,2,3,3-tetrafluoropropoxy)-[1,2,4]triazolo[1,5-a]pyridin-2-amine]
C[C@@H]1CN(S(C)(=O)=O)CC[C@@H]1Nc1nc2cnc(-c3cn[nH]c3)c(OC3CCCC3)n2n1 [Example 140, 5-(Cyclopentyloxy)-N-((3R,4S)-3-methyl-1-(methylsulfonyl)piperidin-4-yl)-6-(1H-pyrazol-4-yl)-[1,2,4]triazolo[1,5-a]pyrazin-2-amine]
CC(C)Oc1c(-c2cn[nH]c2)ccc2nc(N[C@H]3CCN(S(=O)(=O)C4CC4)C[C@H]3C)nn12 [Example 97, N-((3R,4S)-1-(Cyclopropylsulfonyl)-3-methylpiperidin-4-yl)-5-isopropoxy-6-(1H-pyrazol-4-yl)-[1,2,4]triazolo[1,5-a]pyridin-2-amine]
CC1COCCC1Oc1c(-c2cn[nH]c2)ncc2nc(N[C@H]3CCN(S(C)(=O)=O)C[C@H]3C)nn12 (stereo partly drawn) [Example 111, N-((3R,4S)-3-Methyl-1-(methylsulfonyl)piperidin-4-yl)-5-((3-methyltetrahydro-2H-pyran-4-yl)oxy)-6-(1H-pyrazol-4-yl)-[1,2,4]triazolo[1,5-a]pyrazin-2-amine]
CCCc1c(-c2cn[nH]c2)ccn2nc(NC3CCN(S(C)(=O)=O)CC3)nc12 [Example 37, N-(1-(methylsulfonyl)piperidin-4-yl)-8-propyl-7-(1H-pyrazol-4-yl)-[1.2.4]triazolo[1,5-a]pyridin-2-amine]
CC(C)Oc1c(-c2cn[nH]c2)ncn2nc(N[C@H]3CCN(S(=O)(=O)CCCN4CCN(C)CC4)C[C@H]3C)nc12 [Example 61, 8-Isopropoxy-N-((3R,4S)-3-methyl-1-((3-(4-methylpiperazin-1-yl)propyl)sulfonyl)piperidin-4-yl)-7-(1H-pyrazol-4-yl)-[1,2,4]triazolo[1,5-c]pyrimidin-2-amine]
CCS(=O)(=O)N1CC[C@H](Nc2nc3ccc(-c4cn[nH]c4)c(OC(C)C)n3n2)[C@H](C)C1 [Example 96, N-((3R,4S)-1-(Ethylsulfonyl)-3-methylpiperidin-4-yl)-5-isopropoxy-6-(1H-pyrazol-4-yl)-[1,2,4]triazolo[1,5-a]pyridin-2-amine]
CS(=O)(=O)N1CCC(Nc2nc3cnc(-c4cn[nH]c4)c(OC4CCC4)n3n2)CC1 [Example 117, 5-Cyclobutoxy-N-(1-(methylsulfonyl)piperidin-4-yl)-6-(1H-pyrazol-4-yl)-[1,2,4]triazolo[1,5-a]pyrazin-2-amine]
[2H]C(C)(C)Oc1c(-c2cn[nH]c2)ncc2nc(N[C@H]3CCN(S(C)(=O)=O)C[C@H]3C)nn12 [Example 137, N-((3R,4S)-3-Methyl-1-(methylsulfonyl)piperidin-4-yl)-5-((propan-2-yl-2-d)oxy)-6-(1H-pyrazol-4-yl)-[1,2,4]triazolo[1,5-a]pyrazin-2-amine]

— patent US11851426B2, “Bicyclic amines as CDK2 inhibitors” (Incyte Corporation, priority 2019, dated 2023)
